# Experimental data published in BindingDB's records for doi:10.1126/scitranslmed.abb5883 (University of North Carolina at Chapel Hill, 2020).
# Where “and” joins values, the source holds several entries; their conditions need not be identical. Equal entries are not always repeated.
# Experiments:
# [1] = target: T1, Replicase polyprotein 1ab (Severe acute respiratory syndrome coronavirus 2, UniProt P0DTD1); assay: SARS-CoV-2 in Vero E6
# Method: Vero E6 cells were plated at 20,000 cells/well in a 96-well plate. 24hr later, medium containing a dose response of NHC was added concurrent with SARS-CoV-2 (2019-nCoV/USA-WA1/2020 strain) at an MOI of 0.05. 48 hours post infection, cell viability was measured by CellTiter Glo assay.
# [2] = target: T1, Replicase polyprotein 1ab; assay: SARS-CoV-2 in Calu-3
# Method: Calu-3 2B4 cells were adsorbed with MOI 0.1 PFU/cell of SARS-CoV-2 (2019-nCoV/USA-WA1/2020 strain) at 37°C. Plates were manually rocked every 10 min to redistribute the inoculum. After 30 min, virus inoculum was removed, cells were washed with Phosphate buffered saline (PBS) once to remove unbound virus, medium containing NHC or vehicle control (DMSO) was added back onto the cells, and cells were incubated for 72 hours at 37°C.
structure (smiles),measurement,setting,value
O=c1nc(NO)ccn1[C@@H]1O[C@H](CO)[C@@H](O)[C@H]1O [NHC],IC50,[1],300 nM
same,IC50,[2],80 nM and 90 nM
